In article PMC7357371, “Coumarin analogue 3-methyl-7H-furo[3,2-g]chromen-7-one as a possible antiparkinsonian agent” (Biomédica, 2019):
Marks after values point to notes of the source that are not given here.

Columns and labels:
male ICR mice [1] = test: Reserpine model, reversal of hypokinesia (open-field test); assay type: in vivo, mouse; conditions: reserpine 3 mg/kg i.p., 100 mg/kg p.o.
Experimental: (§2) In the reserpine model and l-dopa/carbidopa assays, the locomotor activity was evaluated in the open-field test. The open field was a square arena divided into 16 squares with surrounding walls to prevent escape. Animals were placed individually in the middle of the open field and the specific parameter evaluated was the number of cadres traversed during 5 minutes. The open field was cleaned with a water-alcohol (10%) solution before placing the next animal to eliminate possible bias due to odors left by previous subjects.
The vehicle was a mixture of 15% propylene glycol, 15% glycerol, and enough distilled water to make up 100%. Locomotor activity was evaluated at 2 and 24 h after reserpine administration.

[2] = system: brain homogenates of mice; test: Ex vivo protein carbonyl groups in brain homogenates of haloperidol-treated mice; set-up: species or system mouse; conditions: 10 days, FCS005 50 mg/kg p.o., levodopa:carbidopa 400:40 mg/kg p.o., haloperidol 1 mg/kg i.p., compared to control animals
Experimental: (§1) Antioxidant activity was evaluated ex vivo. Mice were administered daily for 10 days with the treatments FCS005 (50 mg/kg, p.o.), levodopa:carbidopa (400 mg/kg:40 mg/kg, p.o.) or vehicle (p.o.) followed by haloperidol (1 mg/kg, i.p.) 30 min later. Then, the animals were killed by decapitation and the brains were removed, washed in 1% KCl, dissected on an ice-cold plate, and homogenized in 50 mM Tris-HCl buffer (pH 7.4). Homogenates were centrifuged (10,000 rpm for 10 min at 4°C). The final supernatant was stored at -20°C. The protein content of each sample was determined by the Bradford method.
Quantification of protein carbonyl groups was determined by the technique of Levine, et al.[28], following the protocol described by Baltacioglu, et al.[29]. Briefly, 250 µL of 10 mM 2,4-dinitrophenylhydrazine (DNPH) or 250 µL of 2 M HCl were added to the brain homogenate (50 µL) for the sample or the blank, respectively. The samples were left at room temperature in the dark for 1 h and vigorously stirred every 15 min. Then, 500 µL of trichloroacetic acid (20%) was added. The samples were kept in an ice bath for 15 min and then centrifuged at 11,000 rpm for 5 min. […] The absorbance was determined at 360 nm. The content of carbonyl groups was calculated based on the molar extinction coefficient of DNPH (ε = 22 000 cm-1M-1) and expressed as nmol/mg protein [29].

recombinant hMAO-B = molecular target: T1, recombinant hMAO-B (Homo sapiens, UniProt P27338); test: hMAO-B inhibitory activity (Amplex Red MAO kit)
T1 sequence (P27338 1-520): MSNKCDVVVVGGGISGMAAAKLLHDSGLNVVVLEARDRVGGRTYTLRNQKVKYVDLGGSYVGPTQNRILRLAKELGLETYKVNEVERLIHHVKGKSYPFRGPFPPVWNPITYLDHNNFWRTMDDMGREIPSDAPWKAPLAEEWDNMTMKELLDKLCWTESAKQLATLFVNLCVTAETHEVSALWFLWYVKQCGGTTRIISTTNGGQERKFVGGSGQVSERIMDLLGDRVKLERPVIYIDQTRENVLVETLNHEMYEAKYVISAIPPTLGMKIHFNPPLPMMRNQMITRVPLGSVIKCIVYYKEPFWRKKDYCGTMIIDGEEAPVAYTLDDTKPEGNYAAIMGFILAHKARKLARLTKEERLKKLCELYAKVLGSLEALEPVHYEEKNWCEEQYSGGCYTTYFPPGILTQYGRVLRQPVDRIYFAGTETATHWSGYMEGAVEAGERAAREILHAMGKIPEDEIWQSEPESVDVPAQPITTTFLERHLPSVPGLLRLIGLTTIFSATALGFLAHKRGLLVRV
Experimental: (§3) In the control experiments, the test drugs were replaced with dilutions of the vehicles. In addition, the specific fluorescence emission was calculated after subtraction of the background activity, which was determined from wells containing all components except the hMAO isoforms that were replaced by a sodium phosphate buffer solution.

male ICR mice [3] = test: Motor activity in mice not pretreated with reserpine (open-field test); assay type: in vivo, mouse; conditions: 50 mg/kg p.o.
Experimental: We used male ICR mice six to seven weeks old (25 - 30 g) provided by the bioterium of the Departamento de Farmacia, Facultad de Ciencias, at Universidad Nacional de Colombia. The animals were kept under standard laboratory conditions, 12-hour light-dark cycles, and at room temperature (22 ± 1°C) with food and water available ad libitum.
The open field was a square arena divided into 16 squares with surrounding walls to prevent escape. Animals were placed individually in the middle of the open field and the specific parameter evaluated was the number of cadres traversed during 5 minutes. The open field was cleaned with a water-alcohol (10%) solution before placing the next animal to eliminate possible bias due to odors left by previous subjects.

male ICR mice [4] = test: L-dopa/carbidopa plus MAO-B inhibitors in mice pretreated with reserpine (open-field test); assay type: in vivo, mouse; conditions: reserpine 3 mg/kg i.p., FCS005 100 mg/kg p.o. plus L-dopa:carbidopa 100:10 mg/kg i.p.
Experimental: as §2
Levodopa plus carbidopa were administrated i.p. 30 min later. Locomotor activity was evaluated at 2 and 24 h after the administration of reserpine.

male ICR mice [5] = test: Haloperidol-induced catalepsy, horizontal bar test; assay type: in vivo, mouse; conditions: FCS005 100 mg/kg p.o.
Experimental: Haloperidol was administered to the animals to induce rigidity and akinesia (catalepsy) [25]^,[26]. Catalepsy was defined as the prolonged maintenance of both forepaws in an atypical position on a horizontal bar.
The animals received haloperidol (3 mg/kg) i.p.; FCS005 (100 mg/kg, p.o.), levodopa:carbidopa (400 mg/kg:40 mg/kg; p.o.) or vehicle (p.o) was administrated 30 min before. The reversal of catalepsy was evaluated for 2 min 60 min after the administration of the treatments.

recombinant hMAO-A = molecular target: T2, recombinant hMAO-A (Homo sapiens, UniProt P21397); test: hMAO-A inhibitory activity (Amplex Red MAO kit)
T2 sequence (P21397 1-527): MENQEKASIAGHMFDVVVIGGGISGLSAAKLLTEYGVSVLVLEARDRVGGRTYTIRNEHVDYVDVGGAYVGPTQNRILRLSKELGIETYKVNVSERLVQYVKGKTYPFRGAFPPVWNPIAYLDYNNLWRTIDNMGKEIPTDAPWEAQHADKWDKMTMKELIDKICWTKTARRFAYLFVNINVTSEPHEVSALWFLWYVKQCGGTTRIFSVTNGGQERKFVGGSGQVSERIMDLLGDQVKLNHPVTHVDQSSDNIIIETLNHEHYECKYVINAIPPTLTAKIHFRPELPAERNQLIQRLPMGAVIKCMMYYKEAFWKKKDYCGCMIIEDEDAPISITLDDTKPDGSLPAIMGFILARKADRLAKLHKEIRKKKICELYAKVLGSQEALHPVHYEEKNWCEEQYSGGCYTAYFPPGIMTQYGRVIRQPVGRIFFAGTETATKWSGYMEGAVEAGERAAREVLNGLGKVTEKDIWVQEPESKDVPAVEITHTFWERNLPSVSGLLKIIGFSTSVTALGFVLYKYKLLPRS
Experimental: as §3

[6] = system: brain homogenates of mice; test: Ex vivo lipid peroxidation (TBARS) in brain homogenates of haloperidol-treated mice; set-up: species or system mouse; conditions: 10 days, FCS005 50 mg/kg p.o., levodopa:carbidopa 400:40 mg/kg p.o., haloperidol 1 mg/kg i.p., compared to control animals
Experimental: as §1
The index of lipid peroxidation was evaluated following the protocol described by Hijova, et al.[27]. The brain homogenate (450 µL), 1 mL trichloroacetic acid (10%), and 50 µL of 50 mM phosphate buffer (pH 7.4) were centrifuged at 1850 xg for 10 min at 4°C; then, 1 mL of thiobarbituric acid (0.67%) was added to 1 mL of the supernatant. This mixture was heated to 92°C for 30 min and then cooled in an ice bath (4°C) before the absorbance was measured at 532 nm. The results were expressed as thiobarbituric acid reactive substances (TBARS) in mmol/mL/mg of tissue protein.

[7] = system: MAO activities in rat brain mitochondria; set-up: method as in PMID 11169165; conditions: in vitro; cited from earlier work

| IC50 (recombinant hMAO-B) [µM] | Selectivity index [IC50 (hMAO-A)]/[IC50 (hMAO-B)] (recombinant hMAO-B; hMAO-B selectivity ratio, for FCS005 hMAO-A IC50 assumed to be 100 µM (highest concentration tested)) | IC50 (recombinant hMAO-A) [µM] | Inhibition of MAO-A isoform activity (recombinant hMAO-A; at the highest concentration tested (100 µM)) | Structure (SMILES) | Reversal of hypokinesia produced by reserpine (number of cadres traversed) (male ICR mice [1]; 2 h after reserpine, p: 0.007 vs control) | Reversal of hypokinesia produced by reserpine (number of cadres traversed) (male ICR mice [1]; 24 h after reserpine, p: 0.002 vs control) | Protein carbonyl groups [2] | Selectivity of MAO inhibition (recombinant hMAO-B; MAO-B vs MAO-A) | Locomotor activity (number of cadres traversed in 5 min) (male ICR mice [3]; at 2 hours, p: 0.023 vs control) | Locomotor activity (number of cadres traversed in 5 min) (male ICR mice [3]; at 24 hours, p: 0.003 vs control) | Number of cadres traversed (male ICR mice [4]; 2 h after reserpine, p: 0.038 vs control) | Number of cadres traversed (male ICR mice [4]; 24 h after reserpine, p: 0.018 vs control) | Total catalepsy time (male ICR mice [5]; haloperidol 3 mg/kg i.p., levodopa:carbidopa 400:40 mg/kg p.o., at 60 min, p: 0.001) | Cataleptic effects of the treatment itself (male ICR mice [5]; horizontal bar test) | Lipid peroxidation levels (TBARS) [6] | Inhibitory actions on MAO activities, isoform preference [7] |
| --- | --- | --- | --- | --- | --- | --- | --- | --- | --- | --- | --- | --- | --- | --- | --- | --- |
| 41.6 ± 2.79 | > 2.4^c | > 100 | did not inhibit MAO-A isoform activity | Cc1coc2cc3oc(=O)ccc3cc12 [FCS005, 3-methyl-7H-furo[3,2-g]chromen-7-one] | reversal of hypokinesia | reversal of hypokinesia | lower | selective inhibitory activity towards MAO-B | significant decrease in the locomotor activity | significant decrease in the locomotor activity | increased the number of cadres traversed | increased the number of cadres traversed | significant decrease in the total catalepsy time | did not show any cataleptic effects | lower | – |
| – | – | – | – | O=c1ccc2cc3ccoc3cc2o1 [Psoralen] | – | – | – | – | – | – | – | – | – | – | – | preferentially inhibiting MAO-A activity over MAO-B activity |
